Results on one compound are retold here after PMC6934184, “Selective DNA-PKcs inhibition extends the therapeutic index of localized radiotherapy and chemotherapy” (The Journal of Clinical Investigation, 2019).

This assay addresses T1, KIT V654A (Homo sapiens, UniProt P10721, V654A).
T1 construct: purchased Thermo Fisher Scientific (Life Technologies) SelectScreen
As to the kind of experiment: SelectScreen LanthaScreen. It counts as binding. Conditions: read-out: % displacement. The method in brief:
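SelectScreen broad panel; activity (Z'LYTE, Adapta) plus binding formats. ATP: Km app for CSF1R Z'LYTE; 10 for CAMK1 Adapta. Readout = % per kinase.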
For orientation: In TR-FRET formats the signal depends on donor and acceptor labels being close together.

T1 sequence (P10721 26-976 V654A): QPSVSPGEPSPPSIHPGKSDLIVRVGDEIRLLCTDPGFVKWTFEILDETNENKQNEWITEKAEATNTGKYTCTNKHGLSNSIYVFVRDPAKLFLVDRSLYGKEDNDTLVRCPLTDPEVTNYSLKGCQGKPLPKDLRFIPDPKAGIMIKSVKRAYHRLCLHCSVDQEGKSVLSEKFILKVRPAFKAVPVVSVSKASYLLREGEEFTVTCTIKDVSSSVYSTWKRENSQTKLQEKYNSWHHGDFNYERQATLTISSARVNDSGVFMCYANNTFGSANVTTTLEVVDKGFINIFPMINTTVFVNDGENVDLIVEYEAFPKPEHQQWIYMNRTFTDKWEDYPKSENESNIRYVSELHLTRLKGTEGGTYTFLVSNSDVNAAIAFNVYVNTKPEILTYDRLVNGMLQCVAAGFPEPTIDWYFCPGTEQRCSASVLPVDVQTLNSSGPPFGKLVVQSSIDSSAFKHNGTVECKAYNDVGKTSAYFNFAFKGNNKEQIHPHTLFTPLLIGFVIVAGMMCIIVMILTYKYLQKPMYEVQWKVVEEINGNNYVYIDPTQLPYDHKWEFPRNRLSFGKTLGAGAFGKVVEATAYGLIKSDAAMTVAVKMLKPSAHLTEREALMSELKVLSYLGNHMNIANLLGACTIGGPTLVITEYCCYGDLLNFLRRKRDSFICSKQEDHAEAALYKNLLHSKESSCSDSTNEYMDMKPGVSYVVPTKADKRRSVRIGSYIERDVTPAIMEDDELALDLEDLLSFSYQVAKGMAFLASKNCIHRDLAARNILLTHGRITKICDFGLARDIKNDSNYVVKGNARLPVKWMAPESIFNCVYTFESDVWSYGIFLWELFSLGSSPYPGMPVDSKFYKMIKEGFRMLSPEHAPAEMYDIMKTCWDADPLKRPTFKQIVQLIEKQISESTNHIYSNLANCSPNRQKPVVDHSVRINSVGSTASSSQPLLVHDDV

As for `CN(C(=O)CN1CCOCC1)c1ccc2sc3c(-c4cccc5c(=O)cc(N6CC7CCC(C6)O7)oc45)cccc3c2c1` [NU5455], the inhibition at 1 µM was determined as 8.1%.
